Laboratory results reported in patent publication US20110098180A1, “Herbicide-Resistant Plants, And Polynucleotides And Methods For Providing Same” (United States Department of Agriculture, priority 2002, published 2011).

Assays:
Test in all cases: Cross resistance to bleaching herbicides, in vitro PDS inhibition, non-His-tagged (Table 2)
[1] = target: hydrilla PDS Arg^304 → Cysteine (Hydrilla verticillata, UniProt Q66PY0, R304C); assay type: biochemical; details: Cysteine at 304; construct in frame with LacZalpha-ccdB, non-His-tagged; read-out: I50
Procedure: (§1) The expression constructs in Table 2 were derived from an original clone of the susceptible PDS gene from Hydrilla and then the Arg^304 was mutated to the listed amino acid. Expression was under the control of the lac promoter but in frame with the initiation codon of the LacZalpha-ccdB gene in the pCR4-TOPO vector (Invitrogen Inc., CA, Cat. #K4575-01).
(§2) All mutagenesis was performed, unless stated otherwise, using the TOPO-vector containing the wildtype (H4) PDS-sequence, which was extracted from an overnight culture with the Qiagen Plasmid Prep Kit as described above. The amount of the extracted plasmid was diluted to 10 ng/μl and used as template in a mutagenesis-procedure using the QuikChange Site-directed Mutagenesis Kit (Stratagene, Calif., #200518). The design of the mutagenesis-primers was conducted according to the manufacturers protocol to enable the specific change of Arg^304-codon to code for the desired amino acid. Primers (purchased from MWG-Biotech) and their introduced amino acid change are listed below with the changed codon underlined:
(§3) The reactions were performed according to the manufacturers protocol. Reactions were set up in MicroAmp-tubes on ice with 38 μl ddH2O, 5 μl 10× reaction buffer, 2 μl plasmid (10 ng/μl), 1.25 μl forward-mutagenesis primer (100 ng/μl), 1.25 μl of reverse mutagenesis primer (100 ng/μl), 1 μl dNTP-mix and 1 μl PfuTurboDNA polymerase (2.5 U/μl). The reactions were placed in a PE 9700 thermal cycler and heated to 95° C. for 30 sec followed by 12 rounds at 95° C. for 30 sec, 55° C. for 1 min and 68° C. for 12 min. The PCR was followed by a DpnI-digestion and transformation in XL1-Blue supercompetent cells as described in the manual. 4-6 resulting colonies were grown overnight in LB-medium with kanamycin and plasmid DNA was isolated as described above. The plasmid was used as template for sequencing with M13 and internal PDS-primers as described above on a LiCOR-system. Sequences were assembled and analyzed using Seqman. Introduced mutations were identified and plasmids carrying the desired mutation(s) were transferred into competent TOP10-cells, using the transformation protocol from the TOPO TA Cloning Kit. Resulting colonies were grown overnight in Wu-broth with kanamycin, aliquoted and stored at −80° C. until further use. 1 ml of Wu-cultures was used to start 1-L LB-cultures with kanamycin as described before, to express active PDS-enzyme for testing as described.
(§4) Phytoene desaturase activity and its inhibition by herbicides was determined using an in vitro system using components derived from the in vivo production of phytoene and phytoene desaturase proteins. All mutations described in Examples 3 and 4 were tested. […] The clones were used for the heterologous expression of Hydrilla-PDS-enzyme. In particular, bacterial cultures were grown from single colonies overnight in Wu-broth (6.27 g/L K2HPO4, 1.8 g/L KH2PO4, 0.5 g/L Na-citrate, 0.9 g/L (NH4)2SO4, 10 g/L tryptone, 5 g/L yeast extract, 10 g/L NaCl, 44 ml/L glycerol, 0.1 mM MgSO4, pH 7.2) with kanamycin. 1-mL was aliquoted in centrifuge tube and stored at −80° C. For expression, 1 L LB-medium with kanamycin was inoculated with 1-mL Wu-culture and grown for 24 h at 37° C. to stationary phase with shaking at 200 rpm. The cells were collected by centrifugation at 2000×g. All of the following steps were done at 4° C. unless otherwise noted. Active soluble PDS enzyme was extracted by lysing the transformed E. coli cells using a French Press at 20,000 psi in assay buffer consisting of 100 mM Tris-HCl, pH 7.2, 10 mM magnesium-chloride, 0.1 mM NADP, 0.1 mM FAD, 10 mM cysteine, 5 mM DTT, 1 mM aminocaproic acid, and 1 μg/ml leupeptin. The soluble fraction containing PDS activity was obtained by centrifugation for 10 min at 1200×g. After 24 h they were centrifuged down and used in PDS enzyme activity assays as described below.

[2] = system: hydrilla PDS Arg^304 → Cysteine; assay type: biochemical, Hydrilla verticillata; details: Cysteine at 304 relative to Arginine; Table 2
Procedure: as §1, §2, §3, §4

[3] = target: hydrilla PDS Arg^304 → Histidine (Hydrilla verticillata, UniProt Q66PY0, R304H); assay type: biochemical; details: Histidine at 304; construct in frame with LacZalpha-ccdB, non-His-tagged; read-out: I50
Procedure: as §1, §2, §3, §4

[4] = system: hydrilla PDS Arg^304 → Histidine; assay type: biochemical, Hydrilla verticillata; details: Histidine at 304 relative to Arginine; Table 2
Procedure: as §1, §2, §3, §4

[5] = target: hydrilla PDS Arg^304 → Serine (Hydrilla verticillata, UniProt Q66PY0, R304S); assay type: biochemical; details: Serine at 304; construct in frame with LacZalpha-ccdB, non-His-tagged; read-out: I50
Procedure: as §1, §2, §3, §4

[6] = system: hydrilla PDS Arg^304 → Serine; assay type: biochemical, Hydrilla verticillata; details: Serine at 304 relative to Arginine; Table 2
Procedure: as §1, §2, §3, §4

[7] = target: hydrilla PDS position 304 Arginine (wildtype) (Hydrilla verticillata, UniProt Q66PY0); assay type: biochemical; details: for R/S: Arginine at 304 (reference), Table 2; for IC50: Arginine at 304, construct in frame with LacZalpha-ccdB, non-His-tagged, read-out: I50
Procedure: as §1, §2, §3, §4

Sequence of hydrilla PDS position 304 Arginine (wildtype) (Q66PY0 1-580): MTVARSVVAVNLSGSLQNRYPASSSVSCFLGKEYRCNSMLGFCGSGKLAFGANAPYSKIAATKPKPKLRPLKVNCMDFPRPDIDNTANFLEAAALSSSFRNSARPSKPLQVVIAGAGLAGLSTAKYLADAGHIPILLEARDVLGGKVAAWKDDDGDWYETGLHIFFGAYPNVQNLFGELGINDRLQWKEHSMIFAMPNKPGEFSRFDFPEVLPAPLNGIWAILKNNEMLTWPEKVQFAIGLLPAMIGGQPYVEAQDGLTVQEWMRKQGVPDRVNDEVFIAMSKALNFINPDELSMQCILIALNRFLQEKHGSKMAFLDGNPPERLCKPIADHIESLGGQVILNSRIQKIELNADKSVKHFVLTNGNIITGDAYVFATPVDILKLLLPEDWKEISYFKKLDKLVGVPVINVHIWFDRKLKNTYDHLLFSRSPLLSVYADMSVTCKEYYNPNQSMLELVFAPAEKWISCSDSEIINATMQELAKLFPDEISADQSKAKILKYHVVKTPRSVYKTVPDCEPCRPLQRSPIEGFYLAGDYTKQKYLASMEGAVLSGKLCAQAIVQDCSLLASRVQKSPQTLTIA
Sequence of hydrilla PDS Arg^304 → Histidine (Hydrilla verticillata, UniProt Q66PY0, R304H) (Q66PY0 1-580 R304H): as the sequence (Q66PY0 1-580) above, with R304H counted along it
Sequence of hydrilla PDS Arg^304 → Serine (Hydrilla verticillata, UniProt Q66PY0, R304S) (Q66PY0 1-580 R304S): as the sequence (Q66PY0 1-580) above, with R304S counted along it
Sequence of hydrilla PDS Arg^304 → Cysteine (Hydrilla verticillata, UniProt Q66PY0, R304C) (Q66PY0 1-580 R304C): as the sequence (Q66PY0 1-580) above, with R304C counted along it

| Compound | IC50 [1] [µM] | R/S [2] | IC50 [3] [µM] | R/S [4] | IC50 [5] [µM] | R/S [6] | R/S [7] | IC50 [7] [µM] |
| --- | --- | --- | --- | --- | --- | --- | --- | --- |
| O=C(Nc1ccc(F)cc1F)c1cccnc1Oc1cccc(C(F)(F)F)c1 [Diflufenican] | 2.1 | 0.4 | 2 | 0.4 | 1.1 | 0.2 | 1 | 5.8 |
| CNC1=C(c2cccc(C(F)(F)F)c2)C(=O)C(c2ccccc2)O1 (stereo not shown) [Flurtamone] | 5.3 | 1.9 | 3.3 | 1.2 | 5.9 | 2.1 | 1 | 2.8 |
| CNc1cnn(-c2cccc(C(F)(F)F)c2)c(=O)c1Cl [Norflurazon] | 89.4 | 28.8 | 5 | 1.6 | 54.9 | 17.7 | – | 3.1 |
| O=C1C(Cl)C(CCl)CN1c1cccc(C(F)(F)F)c1 (stereo not shown) [Fluorochloridone] | 44.3 | 3.6 | 14 | 1.1 | 23 | 1.9 | 1 | 12.2 |
| CCC(Oc1ccc(F)c(C(F)(F)F)c1)C(=O)NCc1ccccc1 (stereo not shown) [Beflubutamid] | 3.5 | 0.8 | 3 | 0.7 | 2.6 | 0.6 | 1 | 4.3 |
| O=C(Nc1ccc(F)cc1)c1cccc(Oc2cccc(C(F)(F)F)c2)n1 [Piconilafen, Picolinafen] | 2.4 | 0.4 | 3 | 0.5 | – | 0.4 | – | 5.6 |
| Fluridone | – | 3.2 | – | 2.8 | – | 5.5 | 1 | – |
